Experiments:
CYP2D6 = CYP2D6 (Homo sapiens, UniProt P10635); experiment: Metabolism by CYP2D6 isoform; type: in vitro ADME; details: substantially pure (3E) diastereomer; also CYP2C19
Procedure: (§1) At five time points over the course of a 45 minute experiment, the compounds were analyzed by LC-MS/MS. The percentage of each compound remaining at each time point, along with the metabolic half-lives of each compound in the presence of each cytochrome P450 isoform, are indicated in Tables 10-12, below.

[1] = Phase 2 clinical study of Example 1: serum level of compound (II) at embryo transfer; type: in vivo; details: female, human, mean
From the text: (§2) A total of 247 female subjects were selected for treatment based on a variety of inclusion criteria. Of these, 244 subjects completed the study. The study was open to healthy female volunteers from 18 to 36 years of age that had previously undergone up to one IVF or ICSI cycle that resulting in a negative pregnancy test as assessed by hCG detection, despite the transfer of at least one embryo of good quality, which was defined as an embryo having from six to eight blastomeres of uniform size and shape on the day of embryo transfer, ooplasm having no granularity, absence of multinucleation, and a maximum fragmentation of 10%. Subjects included in the study had at least one functional ovary and were capable of communicating with the investigator and research staff and complying with the requirements of the study protocol. Data are presented in the form of mean (standard deviation).
Subjects included in the study underwent an initial screening period beginning up to 12 weeks prior to the day of oocyte retrieval from the subject. During this 12-week period, subjects underwent physical and gynecological examination in preparation for oocyte retrieval. This analysis included a recordation of the subjects' vital signs, hematology and biochemistry analysis of blood samples withdrawn from the subjects, urinary analysis, and a comprehensive review of the subjects' medical histories.
At the conclusion of the screening period, subjects underwent controlled ovarian hyperstimulation by administration of a GnRH antagonist so as to prevent a premature rise in serum LH concentration. Concurrent pre-treatment with an oral contraceptive prior to controlled ovarian hyperstimulation was allowed, but not required. Final follicular maturation was performed with a single administration of hCG to the subject. […]
(§3) The embryo transfer procedure was conducted three days after the oocyte retrieval day (OPU+3 days). Subjects undergoing embryo transfer were monitored prior to initiating the procedure. […]

[2] = tested on: female human subjects undergoing embryo transfer therapy; experiment: Clinical studies of embryo implantation in subjects undergoing embryo transfer therapy (Example 1); type: in vivo
From the text: as §2
Subjects included in the study underwent an initial screening period beginning up to 12 weeks prior to the day of oocyte retrieval from the subject. During this 12-week period, subjects underwent physical and gynecological examination in preparation for oocyte retrieval. […]
as §3

[3] = tested on: uterine contractions in human subjects; experiment: Uterine contractility in human subjects (Example 4); details: in vivo
From the text: Values along the y-axis represent the quantity of uterine contractions (UC) per minute.

[4] = tested on: endometrial blood flow in human subjects; experiment: Endometrial blood flow in human subjects (Example 4); details: in vivo
From the text: Values along the y-axis represent endometrial flow index (FI), a parameter that is proportional to the volumetric quantity of blood that circulates through the endometrium in a given period of time.
Values along the y-axis represent endometrial vascularity index (VI), a parameter that is proportional to the total quantity of blood vessels in a subject's endometrium.
Values along the y-axis represent vascularity flow index (VFI), a parameter that is proportional to the total quantity of blood that circulates through a given volume of a subject's endometrium.

[5] = tested on: subjects undergoing embryo transfer; experiment: Pregnancy and live birth rates, clinical study in subjects undergoing embryo transfer; type: in vivo, human; details: post hoc, pre-dose serum P4 quartiles 1-3; significant dose-dependent fashion (p<0.02)
Procedure: From one to two embryos of good quality were transferred to each subject. To reduce uterine contractions at the time of embryo transfer, soft or ultra-soft catheters were used and contact with the uterine fundus was avoided. Any difficulties that occurred during the embryo transfer procedure were recorded, including instances in which uterine sounding or cervical dilation were required, instances in which a harder catheter was required, or instances in which blood was found in any part of the catheter.
Approximately 1 hour following embryo transfer, subjects underwent a final physical examination and were subsequently discharged from the clinical unit until the first follow-up visit, which occurred at about 14 days following oocyte retrieval (OPU+14 days). At this time, subjects underwent a physical examination as well as a blood sample analysis to assess pregnancy by detection of hCG. […] Pregnancy status was monitored by detecting embryo heartbeat. […]
Positive blood pregnancy test at 14 days following oocyte retrieval and positive embryo heartbeat at 10 weeks following oocyte retrieval were assessed in the same manner as described above. Change from baseline to the time of embryo transfer in uterine contraction rate was analyzed by the Wilcoxon Rank Sum Test by comparing the uterine contraction rate associated with each dose to that observed with placebo-treated subjects.

CYP3A4 = CYP3A4 (Homo sapiens, UniProt P08684); experiment: Metabolism by CYP3A4 isoform; type: in vitro ADME; details: substantially pure compound (II)
Procedure: as §1

[6] = Concentration of compound (II) after single oral dose in healthy female volunteers; type: in vivo, human; details: oral administration of either the 900 mg or the 1,800 mg dose; FIG. 6
Procedure: (§4) Particularly, subjects were pre-treated with estradiol valerate at a dosage of 2 mg administered 3 times per day (TID) for 16 days. Administration of estradiol valerate was followed by vaginal progesterone at a dosage of 200 mg administered TID.

uterine contractions = experiment: Uterine contractions by ultrasound in healthy female volunteers; type: in vivo, human; details: 1,800 mg dose
Procedure: as §4
(§5) These assessments included measurements of uterine contractions by ultrasound and uterine perfusion by a 3D-power Doppler technique.
(§6) Mean and median changes in uterine contraction frequency and endometrial vascularity indices (particularly, endometrial flow index (FI), vascularity index (VI), and vascularity flow index (VFI)) were calculated. […] Differences in endometrial mRNA expression were identified and assessed for statistical significance.

endometrial perfusion = experiment: Uterine perfusion by 3D-power Doppler in healthy female volunteers; type: in vivo, human; details: baseline to 24 hours; both 900 mg and 1,800 mg doses
Procedure: as §4, §5, §6

[7] = tested on: endometrial RNA transcript expression; experiment: Endometrial RNA transcript expression by RNA-Seq in healthy female volunteers; type: in vivo, human; details: 900 mg
Procedure: as §4, §5, §6
Using an RNA-Seq assay, each subject's expression of a variety of genes, including DPP4, CNTNAP3, CNTN4, CXCL12, TNXB, CTSE, OLFM4, KRT5, KRT6A, and IDO2, was then assessed to determine whether the expression of each gene increased, decreased, or underwent no significant change due to administration of the compound or placebo.

[8] = tested on: spontaneous uterine contractions; details: cited from earlier work
[9] = crystal form with XRPD peaks of Table 1; cited from earlier work

Sequence of CYP3A4 (P08684 whole entry, canonical isoform): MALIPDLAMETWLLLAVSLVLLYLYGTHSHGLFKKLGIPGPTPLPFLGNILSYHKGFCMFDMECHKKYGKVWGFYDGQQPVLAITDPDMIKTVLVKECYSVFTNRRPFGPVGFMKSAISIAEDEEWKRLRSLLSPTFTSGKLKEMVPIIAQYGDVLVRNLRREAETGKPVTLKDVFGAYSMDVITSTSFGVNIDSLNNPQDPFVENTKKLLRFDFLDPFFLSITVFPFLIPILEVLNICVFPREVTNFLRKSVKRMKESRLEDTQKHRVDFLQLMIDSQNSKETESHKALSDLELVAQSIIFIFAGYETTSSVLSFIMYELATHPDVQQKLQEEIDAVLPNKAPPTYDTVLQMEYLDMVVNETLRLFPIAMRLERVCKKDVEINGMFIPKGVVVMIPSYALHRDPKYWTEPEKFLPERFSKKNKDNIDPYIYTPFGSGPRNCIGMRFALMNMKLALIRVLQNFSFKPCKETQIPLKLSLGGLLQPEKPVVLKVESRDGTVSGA
Sequence of CYP2D6 (P10635 whole entry, canonical isoform): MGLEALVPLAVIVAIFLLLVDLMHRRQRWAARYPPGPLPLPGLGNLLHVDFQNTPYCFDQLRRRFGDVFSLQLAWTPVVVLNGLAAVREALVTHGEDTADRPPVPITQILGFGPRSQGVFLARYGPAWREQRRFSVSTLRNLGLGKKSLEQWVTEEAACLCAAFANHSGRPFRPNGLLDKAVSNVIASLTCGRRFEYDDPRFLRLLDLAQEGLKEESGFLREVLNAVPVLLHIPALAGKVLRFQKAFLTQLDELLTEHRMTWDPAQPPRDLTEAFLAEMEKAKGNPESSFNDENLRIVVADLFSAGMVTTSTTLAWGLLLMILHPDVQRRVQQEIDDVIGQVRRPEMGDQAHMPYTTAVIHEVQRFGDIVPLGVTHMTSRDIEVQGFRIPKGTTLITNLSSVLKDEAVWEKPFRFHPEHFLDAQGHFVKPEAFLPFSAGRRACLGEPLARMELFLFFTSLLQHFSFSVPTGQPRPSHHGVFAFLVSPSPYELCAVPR

SMILES: CO/N=C1\C[C@@H](CO)N(C(=O)c2ccc(-c3ccccc3C)cc2)C1 [(3E) isomer, (3E,5S)-5-(hydroxymethyl)-1-[(2′-methyl-1,1′-biphenyl-4-yl)carbonyl]pyrrolidin-3-one O-methyloxime]
- Preferential metabolism by cytochrome P450 isoform (CYP2D6): preferentially metabolized by cytochrome P450 isoforms 2D6 (CYP2D6) and 2C19 (CYP2C19)

SMILES: CO/N=C1/C[C@@H](CO)N(C(=O)c2ccc(-c3ccccc3C)cc2)C1 [compound (II), (3Z,5S)-5-(hydroxymethyl)-1-[(2′-methyl-1,1′-biphenyl-4-yl)carbonyl]pyrrolidin-3-one O-methyloxime]
- concentration at 4 hours ([1]; 100 mg oral dose about 4 hours prior to embryo transfer, n = 62): 484 ng/mL
- concentration at 4 hours ([1]; 300 mg oral dose about 4 hours prior to embryo transfer, n = 60): 1450 ng/mL
- concentration at 4 hours ([1]; 900 mg oral dose about 4 hours prior to embryo transfer, n = 60): 4160 ng/mL
- successful embryo implantation rate ([2]; dose-dependent, particularly strong at pre-treatment serum P4 below 320 nM): improve successful embryo implantation rate
- risk of embryo implantation failure ([2]; human subjects that previously underwent ovarian hyperstimulation and oocyte retrieval): reduce the risk of embryo implantation failure
- uterine contractility [3]: reduce uterine contractility
- flow of blood to the endometrium [4]: augment the flow of blood to the endometrium
- Pregnancy and live-birth rates versus placebo group [5]: overall increase in pregnancy and live-birth rates in the treatment arms versus the placebo group
- Preferential metabolism by cytochrome P450 isoform (CYP3A4): preferentially metabolized by cytochrome P450 isoform 3A4 (CYP3A4)
- Time at which maximum concentration is reached [6]: about 4 hours
- Proportion of subjects showing less than one uterine contraction per minute versus placebo (uterine contractions; p=0.0121): significance was seen at the 8-hour time point
- Number of uterine contractions per minute versus placebo (uterine contractions; p=0.0923 at 4 hours, p=0.0081 at 8 hours): contraction-reducing effects were observed from the 4-hour time point onwards
- Endometrial perfusion parameters, median values (endometrial perfusion): marked and sustained increases in median values
- mRNA expression in endometrial biopsy tissue compared to placebo [7]: No differences in mRNA expression
- Reduction in spontaneous uterine contractions ([8]; 10, 30, and 60 mg/kg, anesthetized late-term pregnant rats): dose-dependent reduction in spontaneous uterine contractions
- Inhibitory activity with respect to uterine contraction versus (3E) diastereomer ([8]; same vehicle, same model organism): markedly higher than that of the substantially pure (3E) diastereomer

SMILES: CO/N=C1/C[C@@H](CO)N(C(=O)c2ccc(-c3ccccc3C)cc2)C1 [crystal form of compound (II), (3Z,5S)-5-(hydroxymethyl)-1-[(2′-methyl-1,1′-biphenyl-4-yl)carbonyl]pyrrolidin-3-one O-methyloxime]
- stability to aqueous media and physical stress [9]: enhanced stability to aqueous media and physical stress

Source: patent US20220323410A1, “OXYTOCIN ANTAGONIST DOSING REGIMENS FOR PROMOTING EMBRYO IMPLANTATION AND PREVENTING MISCARRIAGE” (ObsEva S.A., priority 2019, published 2022)
